Entries after “also recorded” stand apart in the source; their conditions may differ. Like-named read-outs stand apart in the source and are kept apart here.
Columns and labels:
[1] = for Patients reporting an adverse event: 22 patients
[2] = cited from earlier work

Row | Structure (SMILES) | Episodes of hypoglycemia ([1]; dapagliflozin 10 mg single oral dose, with and without voglibose) | Patients reporting an adverse event ([1]; pharmacokinetic sampling period 1: dapagliflozin with voglibose) | Patients reporting an adverse event ([1]; pharmacokinetic sampling period 2: dapagliflozin only) | Intensity of observed AEs ([1]; whole study, dapagliflozin 10 mg with or without voglibose) | Systemic / gastrointestinal absorption after oral administration [2]
1 | CCOc1ccc(Cc2cc([C@@H]3O[C@H](CO)[C@@H](O)[C@H](O)[C@H]3O)ccc2Cl)cc1 [Dapagliflozin] | no episodes of hypoglycemia | one patient | three patients | mild or moderate | –
2 | OCC(CO)N[C@H]1C[C@](O)(CO)[C@@H](O)[C@H](O)[C@H]1O [Voglibose] | – | – | – | – | poorly absorbed; also recorded: minimal systemic absorption

— article PMC3687097 (Diabetes Therapy, 2013)
